Results taken from the supplement of paper PMC6045584.
± gives the standard deviation of the averaged measurements.

How the values were obtained:
DOXORUBICIN = compound: COc1cccc2c1C(=O)c1c(O)c3c(c(O)c1C2=O)C[C@@](O)(C(=O)CO)C[C@@H]3O[C@H]1C[C@H](N)[C@H](O)[C@H](C)O1 [DOXORUBICIN]; assay: surviving fraction relative to DMSO-only wells; higher = less growth inhibition; conditions: exposure time: 5 days
In short: (§1)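 A line counted only if its three screens reached replicate Pearson r >0.7 and median Z' >0.3. Tumour cells in log phase were seeded at 250–500 per well in 384-well plates and, after 24 hours, kept in continuous contact with inhibitors at 0.5, 1, 5, 10, 50, 100, 500 and 1000 nM for five days. Surviving fraction was taken from CellTiter-Glo luminescence relative to the median of DMSO-only wells.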

VISMODEGIB = compound: CS(=O)(=O)c1ccc(C(=O)Nc2ccc(Cl)c(-c3ccccn3)c2)c(Cl)c1 [VISMODEGIB]; assay: as above; conditions: exposure time: 5 days
In short: as §1

Row | Test System | surviving fraction (DOXORUBICIN; 0.5 nM) | surviving fraction (DOXORUBICIN; 1 nM) | surviving fraction (DOXORUBICIN; 5 nM) | surviving fraction (DOXORUBICIN; 10 nM) | surviving fraction (DOXORUBICIN; 50 nM) | surviving fraction (DOXORUBICIN; 100 nM) | surviving fraction (DOXORUBICIN; 500 nM) | surviving fraction (DOXORUBICIN; 1000 nM) | surviving fraction (VISMODEGIB; 0.5 nM) | surviving fraction (VISMODEGIB; 1 nM) | surviving fraction (VISMODEGIB; 5 nM) | surviving fraction (VISMODEGIB; 10 nM) | surviving fraction (VISMODEGIB; 50 nM) | surviving fraction (VISMODEGIB; 100 nM) | surviving fraction (VISMODEGIB; 500 nM) | surviving fraction (VISMODEGIB; 1000 nM)
1 | MDAMB436 BREAST | 0.895 ± 0.077 | 0.905 ± 0.069 | 0.822 ± 0.12 | 0.783 ± 0.026 | 0.484 ± 0.036 | 0.423 ± 0.049 | 0.297 ± 0.016 | 0.269 ± 0.031 | 0.851 ± 0.041 | 0.865 ± 0.0089 | 0.873 ± 0.027 | 0.852 ± 0.071 | 0.891 ± 0.04 | 0.915 ± 0.056 | 0.751 ± 0.013 | 0.78 ± 0.045
2 | MDAMB453 BREAST | 1.05 ± 0.045 | 1.04 ± 0.065 | 1.07 ± 0.017 | 1.08 ± 0.044 | 0.723 ± 0.065 | 0.395 ± 0.066 | 0.0503 ± 0.0055 | 0.0433 ± 0.0023 | 0.926 ± 0.025 | 0.966 ± 0.03 | 0.951 ± 0.021 | 1.03 ± 0.043 | 0.89 ± 0.047 | 0.954 ± 0.014 | 0.949 ± 0.027 | 0.9893 ± 0.0072
3 | MDAMB468 BREAST | 0.897 ± 0.065 | 0.931 ± 0.075 | 0.992 ± 0.039 | 0.969 ± 0.013 | 0.49 ± 0.18 | 0.342 ± 0.006 | 0.11 ± 0.035 | 0.038 ± 0.0072 | 1.02 ± 0.064 | 0.927 ± 0.056 | 0.996 ± 0.058 | 0.957 ± 0.085 | 0.908 ± 0.083 | 1.02 ± 0.076 | 0.944 ± 0.065 | 0.955 ± 0.1
4 | MFM223 BREAST | 1.11 ± 0.045 | 1.05 ± 0.032 | 0.975 ± 0.069 | 0.702 ± 0.12 | 0.669 ± 0.082 | 0.221 ± 0.013 | 0.079 ± 0.0053 | 0.052 ± 0.007 | 1.07 ± 0.11 | 1.1 ± 0.021 | 1.05 ± 0.058 | 1.14 ± 0.035 | 0.841 ± 0.08 | 0.875 ± 0.081 | 0.901 ± 0.068 | 0.853 ± 0.063
5 | MG63 BONE | 1.02 ± 0.041 | 1.04 ± 0.053 | 1.04 ± 0.022 | 1.03 ± 0.028 | 0.21 ± 0.014 | 0.16 ± 0.025 | 0.0327 ± 0.0025 | 0.031 ± 0.0017 | 0.925 ± 0.035 | 0.9747 ± 0.0063 | 0.982 ± 0.023 | 0.993 ± 0.026 | 0.983 ± 0.003 | 1.01 ± 0.02 | 0.905 ± 0.007 | 0.966 ± 0.026
6 | MHM BONE | 0.992 ± 0.027 | 1.03 ± 0.016 | 1.008 ± 0.009 | 1.005 ± 0.0081 | 0.841 ± 0.029 | 0.792 ± 0.02 | 0.296 ± 0.031 | 0.16 ± 0.019 | 0.978 ± 0.04 | 1.018 ± 0.0098 | 1.04 ± 0.035 | 1.02 ± 0.027 | 1.04 ± 0.015 | 1.05 ± 0.017 | 1.04 ± 0.008 | 1.085 ± 0.0059
7 | NCIH441 LUNG | 1.04 ± 0.054 | 1.06 ± 0.051 | 0.937 ± 0.032 | 0.799 ± 0.029 | 0.558 ± 0.013 | 0.461 ± 0.024 | 0.246 ± 0.019 | 0.096 ± 0.0069 | 0.971 ± 0.018 | 1.02 ± 0.11 | 1.01 ± 0.032 | 1.05 ± 0.036 | 0.971 ± 0.041 | 0.945 ± 0.041 | 0.9667 ± 0.0045 | 1.03 ± 0.086
8 | NOS1 BONE | 1.16 ± 0.077 | 0.972 ± 0.051 | 0.982 ± 0.1 | 0.643 ± 0.074 | 0.752 ± 0.11 | 0.455 ± 0.036 | 0.106 ± 0.013 | 0.0487 ± 0.0068 | 1.09 ± 0.11 | 1.13 ± 0.13 | 1.1 ± 0.076 | 1.2 ± 0.065 | 0.926 ± 0.088 | 0.958 ± 0.049 | 0.819 ± 0.022 | 0.832 ± 0.04
9 | NY BONE | 0.959 ± 0.019 | 0.966 ± 0.013 | 0.981 ± 0.015 | 0.876 ± 0.058 | 0.294 ± 0.015 | 0.201 ± 0.0044 | 0.0617 ± 0.004 | 0.0443 ± 0.0057 | 0.955 ± 0.018 | 0.968 ± 0.033 | 0.977 ± 0.018 | 1.06 ± 0.027 | 0.993 ± 0.025 | 0.996 ± 0.016 | 0.932 ± 0.058 | 1.01 ± 0.041
10 | OS25HAL BONE | 0.982 ± 0.016 | 0.974 ± 0.013 | 0.97033 ± 0.00058 | 0.965 ± 0.0076 | 0.258 ± 0.033 | 0.151 ± 0.01 | 0.0337 ± 0.0047 | 0.038 ± 0.003 | 1 ± 0.014 | 1 ± 0.033 | 0.9983 ± 0.009 | 0.998 ± 0.017 | 0.967 ± 0.019 | 0.98 ± 0.005 | 1.01 ± 0.048 | 1.02 ± 0.054
11 | OSHN BONE | 1.04 ± 0.039 | 1.05 ± 0.059 | 1.05 ± 0.031 | 1.03 ± 0.028 | 0.299 ± 0.068 | 0.286 ± 0.062 | 0.0707 ± 0.0021 | 0.0503 ± 0.00058 | 1.01 ± 0.022 | 1.03 ± 0.019 | 1.05 ± 0.013 | 1.059 ± 0.0084 | 0.955 ± 0.021 | 0.991 ± 0.024 | 0.963 ± 0.031 | 0.989 ± 0.025
12 | PCI30 HEADNECK | 0.979 ± 0.094 | 0.929 ± 0.01 | 0.92 ± 0.13 | 0.637 ± 0.061 | 0.551 ± 0.022 | 0.587 ± 0.024 | 0.079 ± 0.023 | 0.03 ± 0.0027 | 0.911 ± 0.028 | 0.956 ± 0.07 | 0.96 ± 0.04 | 0.947 ± 0.065 | 0.898 ± 0.079 | 0.949 ± 0.017 | 0.844 ± 0.077 | 0.876 ± 0.043
13 | RDES SOFT TISSUE | 1.15 ± 0.035 | 1.15 ± 0.061 | 1.04 ± 0.05 | 1.25 ± 0.14 | 0.16 ± 0.021 | 0.0457 ± 0.004 | 0.087 ± 0.0098 | 0.0413 ± 0.0031 | 1.06 ± 0.088 | 1.1 ± 0.047 | 1.11 ± 0.22 | 1.16 ± 0.034 | 0.677 ± 0.3 | 0.83 ± 0.34 | 0.761 ± 0.18 | 0.717 ± 0.32
14 | S68 BREAST | 0.792 ± 0.077 | 0.87 ± 0.13 | 0.693 ± 0.16 | 0.424 ± 0.016 | 0.205 ± 0.013 | 0.19 ± 0.015 | 0.037 ± 0.0046 | 0.0317 ± 0.0011 | 0.99 ± 0.087 | 0.839 ± 0.11 | 1.21 ± 0.25 | 1.04 ± 0.2 | 0.762 ± 0.19 | 0.917 ± 0.23 | 0.805 ± 0.12 | 0.621 ± 0.058
15 | SAOS2 BONE | 1.13 ± 0.038 | 1.1 ± 0.054 | 1.09 ± 0.043 | 0.914 ± 0.055 | 0.277 ± 0.0081 | 0.111 ± 0.0087 | 0.036 | 0.0367 ± 0.0029 | 1.11 ± 0.052 | 1.097 ± 0.0075 | 1.08 ± 0.059 | 1.099 ± 0.0081 | 0.834 ± 0.082 | 0.954 ± 0.052 | 0.85 ± 0.036 | 0.916 ± 0.055
16 | SCC003 HEADNECK | 0.959 ± 0.12 | 1.04 ± 0.12 | 1.02 ± 0.1 | 0.855 ± 0.098 | 0.396 ± 0.046 | 0.431 ± 0.065 | 0.11 ± 0.025 | 0.0417 ± 0.0086 | 0.956 ± 0.073 | 0.988 ± 0.029 | 1.05 ± 0.17 | 1.06 ± 0.11 | 0.918 ± 0.082 | 1.05 ± 0.14 | 0.852 ± 0.08 | 0.98 ± 0.056
